Laboratory results: ChEMBL document CHEMBL1152884, “The identification of orally bioavailable thrombopoietin agonists” (Bioorg Med Chem Lett, 2009)
pEC50: −log10 of the molar value. In brackets after ≈: the same amount, converted by molar mass.

Columns and labels:
[1] = Lipophilicity, log D of the compound; format: physicochemical; conditions: octanol/water
[2] = Aqueous solubility of the compound; format: physicochemical
Thrombopoietin receptor = molecular target: T1, Thrombopoietin receptor (Homo sapiens, UniProt P40238); experiment: Agonist activity at human thrombopoietin receptor transfected in mouse BAF3 cells assessed as stimulation of beta lactamase activity incubated in dark up to 1 hr; format: functional, cell-based
T1 sequence (P40238 whole entry): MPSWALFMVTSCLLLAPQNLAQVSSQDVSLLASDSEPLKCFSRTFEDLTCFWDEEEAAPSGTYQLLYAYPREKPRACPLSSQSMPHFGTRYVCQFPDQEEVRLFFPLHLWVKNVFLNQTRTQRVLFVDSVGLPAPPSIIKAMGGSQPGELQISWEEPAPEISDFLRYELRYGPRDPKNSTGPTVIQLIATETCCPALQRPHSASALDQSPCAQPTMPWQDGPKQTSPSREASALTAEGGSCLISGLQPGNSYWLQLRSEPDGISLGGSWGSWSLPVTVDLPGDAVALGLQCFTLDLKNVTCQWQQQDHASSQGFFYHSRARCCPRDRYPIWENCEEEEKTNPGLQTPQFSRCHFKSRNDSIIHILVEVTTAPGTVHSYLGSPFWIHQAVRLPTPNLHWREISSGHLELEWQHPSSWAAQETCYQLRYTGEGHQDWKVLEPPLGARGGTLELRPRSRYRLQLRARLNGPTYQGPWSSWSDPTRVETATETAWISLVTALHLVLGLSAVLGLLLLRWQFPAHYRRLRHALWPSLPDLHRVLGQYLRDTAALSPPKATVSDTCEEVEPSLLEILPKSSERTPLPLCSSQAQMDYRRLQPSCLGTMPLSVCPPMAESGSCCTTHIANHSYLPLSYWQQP

Rattus norvegicus = experiment: Volume of distribution at steady state in rat at 5 mg/kg, po; format: ADME, organism-based; design: dose 5 mg/kg, route oral; conditions: in vivo
[3] = Half life in rat at 5 mg/kg, po; format: ADME, organism-based; design: dose 5 mg/kg, route oral; conditions: in vivo
[4] = Bioavailability in rat at 5 mg/kg, po; format: ADME, organism-based; conditions: in vivo
[5] = Plasma clearance in rat at 5 mg/kg, po; format: ADME, organism-based; design: dose 5 mg/kg, route oral
[6] = Plasma clearance in dog at 5 mg/kg, po; format: ADME, organism-based, Canis lupus familiaris; design: dose 5 mg/kg, route oral
Canis familiaris = experiment: Volume of distribution at steady state in dog at 5 mg/kg, po; format: ADME, organism-based, Canis lupus familiaris; design: dose 5 mg/kg, route oral; conditions: in vivo
[7] = Half life in dog at 5 mg/kg, po; format: ADME, organism-based, Canis lupus familiaris; design: dose 5 mg/kg, route oral; conditions: in vivo
[8] = Bioavailability in dog at 5 mg/kg, po; format: ADME, organism-based, Canis lupus familiaris; conditions: in vivo
[9] = Permeability across human Caco-2 cell membrane; format: ADME, cell-based; conditions: read-out: permeability
[10] = Oral bioavailability in rat; format: ADME, organism-based; conditions: in vivo
[11] = Clearance in iv dosed rat; format: ADME, organism-based; conditions: in vivo
[12] = Protein binding in rat plasma; format: ADME, cell-free; conditions: read-out: PPB
[13] = Protein binding in dog plasma; format: ADME, cell-free, Canis lupus familiaris; conditions: read-out: PPB
[14] = Protein binding in mouse plasma; format: ADME, cell-free; conditions: read-out: PPB
[15] = Protein binding in human plasma; format: ADME, cell-free; conditions: read-out: PPB
[16] = aqueous medium, read-out: solubility

| Compound | logD [1] | solubility [2, 16] [mg/mL] | pEC50 (Thrombopoietin receptor) | further results |
| --- | --- | --- | --- | --- |
| O=C(Nc1nc(-c2cccc(OC(F)(F)F)c2F)cs1)c1ccc(Nc2cc(N3CC(O)C3)ncn2)cc1 | 4.61 | < 0.001 | – | – |
| O=C(Nc1nc(-c2cccc(C(F)(F)F)c2F)cs1)c1cnc(N2CCCCC2)c(Cl)c1 | 7.1 | < 0.01 | < 5.00 | – |
| NCCO.O=C(Nc1nc(-c2cccc(C(F)(F)F)c2F)cs1)c1cnc(N2CCC(C(=O)O)CC2)c(Cl)c1 | – | 15.6 | – | – |
| COc1cc(C(=O)Nc2nc(-c3cccc(C(F)(F)F)c3F)cs2)cnc1N1CCC(C(=O)O)CC1 | – | < 0.01 | < 6.00 | – |
| CC1=NN(c2ccc(C)c(C)c2)C(=O)/C1=N\Nc1cccc(-c2cccc(C(=O)[O-])c2)c1O.[Na+] | – | – | – | Vdss (Rattus norvegicus): 0.831 L/kg; half-life [3]: 1.34 h; bioavailability [4]: 66.8%; CL/F [5]: 0.412 L/h/kg |
| CC1=NN(c2ccc(C)c(C)c2)C(=O)/C1=N\Nc1cccc(-c2cccc(C(=O)O)c2)c1O.NCCO | – | – | – | Vdss (Rattus norvegicus): 0.579 L/kg; half-life [3]: 1.29 h; bioavailability [4]: 53.4%; CL/F [6]: 0.0564 L/h/kg; Vdss (Canis familiaris): 0.228 L/kg; half-life [7]: 2.31 h; bioavailability [8]: 50%; solubility ([2]; buffer): < 0.001 mg/mL; CL/F [5]: 0.38 L/h/kg |
| Cc1cc(C(=O)Nc2nc(-c3cccc(C(F)(F)F)c3F)cs2)cnc1N1CCC(C(=O)O)CC1 | – | < 0.01 | 6.60 | – |
| O=C(Nc1nc(-c2cccc(C(F)(F)F)c2F)cs1)c1cnc(N2CCC(C(=O)O)CC2)c(F)c1 | – | < 0.01 | < 6.00 | – |
| O=C(Nc1nc(-c2cccc(C(F)(F)F)c2F)cs1)c1ccc(N2CCC(C(=O)O)C2)nc1 (centres undefined) | 1.21 | 0.167 (≈ 348 µM) | 5.48 | Papp [9]: 45 nm/s; bioavailability [10]: < 3%; clearance [11]: 0.15 L/h/kg |
| O=C(Nc1nc(-c2cccc(C(F)(F)F)c2F)cs1)c1cnc(N2CCCC(C(=O)O)C2)c(Cl)c1 (centres undefined) | 2.94 | < 0.01 | 6.53 | – |
| O=C(Nc1nc(-c2cccc(C(F)(F)F)c2F)cs1)c1cnc(N2CCC(c3nn[nH]n3)CC2)c(Cl)c1 | 3.24 | < 0.01 | 6.31 | – |
| NCCO.O=C(Nc1nc(-c2cccc(C(F)(F)F)c2F)cs1)c1ccc(N2CCC(C(=O)O)C2)nc1 (centres undefined) | – | > 2 | – | – |
| O=C(Nc1nc(-c2cccc(C(F)(F)F)c2F)cs1)c1ccc(N2CCC(C(=O)O)CC2)nc1 | 1.83 | < 0.01 | 6.37 | – |
| CC1=NN(c2ccc(C)c(C)c2)C(=O)/C1=N\Nc1cccc(-c2cccc(C(=O)O)c2)c1O [ELTROMBOPAG] | – | – | – | solubility ([2]; buffer): 14 mg/mL (≈ 31600 µM) |

More lines, in order of rising pEC50 (Thrombopoietin receptor), values ahead:

| logD [1] | solubility [2, 16] [mg/mL] | pEC50 (Thrombopoietin receptor) | Compound | further results |
| --- | --- | --- | --- | --- |
| – | < 0.01 | 6.86 | N#Cc1cc(C(=O)Nc2nc(-c3cccc(C(F)(F)F)c3F)cs2)cnc1N1CCC(C(=O)O)CC1 | – |
| – | < 0.01 | 6.87 | O=C(Nc1nc(-c2cccc(C(F)(F)F)c2F)cs1)c1cnc(N2CCC(C(=O)O)CC2)c(C(F)(F)F)c1 | – |
| 1.88 | < 0.01 | 6.89 | O=C(Nc1nc(-c2cccc(C(F)(F)F)c2F)cs1)c1cnc(N2CCNC(C(=O)O)C2)c(Cl)c1 (centres undefined) | – |
| 1.57 | < 0.01 | 7.24 | C[C@@H](Nc1ncc(C(=O)Nc2nc(-c3cccc(C(F)(F)F)c3F)cs2)cc1Cl)C(=O)O | – |
| – | < 0.01 | 7.25 | O=C(Nc1nc(-c2cccc(C(F)(F)F)c2F)cs1)c1ccc(N2CCC(C(=O)O)CC2)c(Cl)c1 | – |
| – | < 0.01 | 7.30 | O=C(Nc1nc(-c2cccc(C(F)(F)F)c2F)cs1)c1cnc(N2CCC(C(=O)O)CC2)c(Br)c1 | – |
| 2.79 | < 0.01 | 7.37 | C[C@H]1CN(c2ncc(C(=O)Nc3nc(-c4cccc(C(F)(F)F)c4F)cs3)cc2Cl)CC1C(=O)O (some centres undefined) | – |
| 4.86 | < 0.01 | 7.47 | NS(=O)(=O)C1CCN(c2ncc(C(=O)Nc3nc(-c4cccc(C(F)(F)F)c4F)cs3)cc2Cl)CC1 | – |
| 2.94 | < 0.01 | 7.48 | O=C(Nc1nc(-c2cccc(C(F)(F)F)c2F)cs1)c1cnc(N2CCC(C(=O)O)CC2)c(Cl)c1 | fraction unbound [12]: < 0.005; fraction unbound [13]: < 0.005; fraction unbound [14]: < 0.005; fraction unbound [15]: < 0.005 |
| 4.92 | < 0.01 | 7.55 | NC(=O)C1CCN(c2ncc(C(=O)Nc3nc(-c4cccc(C(F)(F)F)c4F)cs3)cc2Cl)CC1 | – |
| – | < 0.01 | 8.00 | O=C(Nc1nc(-c2cccc(C(F)(F)F)c2F)cs1)c1cc(Cl)c(N2CCC(C(=O)O)CC2)c(Cl)c1 | – |
